# “And” between values parts separate entries of the source, which are not always exact repeats. Equal entries are not always repeated. Records with an inconclusive call do not appear.
# Test system: MX-1 breast xenograft, intrarenal, nude mice, tumor weight
# Test: NCI In Vivo Anticancer Drug Screen. Data for tumor model Human Mammary Carcinoma MX-1 Xenograft (intrarenal inoculation) in NU/NU BALB/C (nude) mice
# Details: endpoint: mean tumor weight change, higher = larger tumour
# Summary of the method: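 T/C readout: treated-group measurement over vehicle-control measurement, using tumor size or survival in tumor-bearing mice.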
# [1] = dose: 25.0 mg/kg/injection, schedule: Q04DX003 (sc), vehicle: saline with Tween-80
# [2] = dose: 150.0 mg/kg/injection, schedule: Q04DX003 (ip), vehicle: Klucel (hydroxypropylcellulose) (HPC)
# [3] = dose: 300.0 mg/kg/injection, schedule: Q04DX003 (ip), vehicle: Klucel (hydroxypropylcellulose) (HPC)
# [4] = dose: 600.0 mg/kg/injection, schedule: Q04DX003 (ip), vehicle: Klucel (hydroxypropylcellulose) (HPC)
compound,measurement,setting,value
CC(=O)C[n+]1ccc(C)cc1Sc1ccccc1C,T/C,"dose: 15.0 mg/kg/injection, schedule: Q04DX003 (ip), vehicle: suspension in saline",111 % of control
same,T/C,"dose: 30.0 mg/kg/injection, schedule: Q04DX003 (ip), vehicle: suspension in saline",97 % of control
same,T/C,"dose: 60.0 mg/kg/injection, schedule: Q04DX003 (ip), vehicle: suspension in saline",80 % of control
same,T/C,"dose: 120.0 mg/kg/injection, schedule: Q04DX003 (ip), vehicle: suspension in saline",102 % of control
O=c1[nH]c(=O)n(C2CC(O)C(CO)O2)cc1F (configuration not stated),T/C,"dose: 25.0 mg/kg/injection, schedule: Q01DX010 (sc), vehicle: water",47 % of control and 68 % of control
same,T/C,"dose: 100.0 mg/kg/injection, schedule: Q01DX010 (sc), vehicle: water",15 % of control and 18 % of control
CC1Oc2cc3c(-c4c(O)cc(O)c5c(O)c6c(cc45)OC(C)C(C)C6=O)c(O)cc(O)c3c(O)c2C(=O)C1C (configuration not stated),T/C,"dose: 9.0 mg/kg/injection, schedule: Q04DX003 (ip), vehicle: suspension in saline",21 % of control
same,T/C,"dose: 12.0 mg/kg/injection, schedule: Q04DX003 (ip), vehicle: suspension in saline",15 % of control
Nc1nc([Se]c2nc(N)nc3c2ncn3C2OC(CO)C(O)C2O)c2ncn(C3OC(CO)C(O)C3O)c2n1 (configuration not stated),T/C,"dose: 100.0 mg/kg/injection, schedule: Q04DX003 (ip), vehicle: distilled water + Tween-80",77 % of control
same,T/C,"dose: 200.0 mg/kg/injection, schedule: Q04DX003 (ip), vehicle: distilled water + Tween-80",78 % of control
same,T/C,"dose: 400.0 mg/kg/injection, schedule: Q04DX003 (ip), vehicle: distilled water + Tween-80",34 % of control
C[n+]1ccc2cc(N)c3c4ccccc4sc3c2c1,T/C,"dose: 12.5 mg/kg/injection, schedule: Q04DX003 (sc), vehicle: saline with Tween-80",96 % of control
same,T/C,[1],100 % of control
C[C@]12CCC(=O)C(O)=C1CC[C@@H]1[C@@H]2CC[C@]2(C)C(=O)CC[C@@H]12,T/C,[2],101 % of control
same,T/C,[3],96 % of control
same,T/C,[4],122 % of control
same,T/C,"dose: 1200.0 mg/kg/injection, schedule: Q04DX003 (ip), vehicle: Klucel (hydroxypropylcellulose) (HPC)",113 % of control
COc1cc(/C=C/[N+](=O)[O-])cc(Br)c1OC,T/C,"dose: 6.25 mg/kg/injection, schedule: Q04DX003 (ip), vehicle: saline with Tween-80",81 % of control
same,T/C,"dose: 12.5 mg/kg/injection, schedule: Q04DX003 (ip), vehicle: saline with Tween-80",104 % of control
same,T/C,"dose: 25.0 mg/kg/injection, schedule: Q04DX003 (ip), vehicle: saline with Tween-80",92 % of control and 105 % of control
same,T/C,"dose: 50.0 mg/kg/injection, schedule: Q04DX003 (ip), vehicle: saline with Tween-80",96 % of control
Cc1cc(SCC(=O)c2ccc(Br)cc2)cc(C)[o+]1,T/C,"dose: 50.0 mg/kg/injection, schedule: Q01DX010 (sc), vehicle: saline",91 % of control
same,T/C,"dose: 100.0 mg/kg/injection, schedule: Q01DX010 (sc), vehicle: saline",124 % of control
same,T/C,"dose: 200.0 mg/kg/injection, schedule: Q01DX010 (sc), vehicle: saline",71 % of control
same,T/C,"dose: 400.0 mg/kg/injection, schedule: Q01DX010 (sc), vehicle: saline",102 % of control
CC[C@@]1(O)C(=O)OCc2c1cc1n(c2=O)Cc2cc3c(N)cccc3nc2-1,T/C,"dose: 0.72 mg/kg/injection, schedule: Q04DX003 (ip), vehicle: saline with Tween-80",6 % of control
same,T/C,"dose: 1.0 mg/kg/injection, schedule: Q04DX003 (ip), vehicle: saline with Tween-80",-97 % of control
same,T/C,"dose: 1.2 mg/kg/injection, schedule: Q04DX003 (ip), vehicle: saline with Tween-80",-30 % of control
same,T/C,"dose: 2.0 mg/kg/injection, schedule: Q04DX003 (ip), vehicle: saline with Tween-80",-92 % of control and -100 % of control
same,T/C,"dose: 3.33 mg/kg/injection, schedule: Q04DX003 (ip), vehicle: saline with Tween-80",-100 % of control
CN=C(NC)c1ccc(NC(=O)/C=C\c2ccc(/C=C/C(=O)Nc3ccc(C(=NC)NC)cc3)cc2)cc1,T/C,"dose: 6.25 mg/kg/injection, schedule: Q04DX003 (ip), vehicle: Klucel (hydroxypropylcellulose) (HPC)",89 % of control
O=C(O)CC(=O)O.[NH-]CC[NH-].[Pt+2],T/C,"dose: 25.0 mg/kg/injection, schedule: Q01DX010 (sc), vehicle: dextrose",-6 % of control
same,T/C,"dose: 50.0 mg/kg/injection, schedule: Q01DX010 (sc), vehicle: dextrose",-85 % of control
N[C@@H](C[C@H]1CCC(=O)[C@@H]2O[C@H]12)C(=O)O,T/C,"dose: 150.0 mg/kg/injection, schedule: Q04DX003 (ip), vehicle: saline",94 % of control
same,T/C,"dose: 150.0 mg/kg/injection, schedule: Q04DX003 (ip), vehicle: suspension in saline",100 % of control
same,T/C,"dose: 300.0 mg/kg/injection, schedule: Q04DX003 (ip), vehicle: saline",90 % of control
same,T/C,"dose: 300.0 mg/kg/injection, schedule: Q04DX003 (ip), vehicle: suspension in saline",75 % of control
same,T/C,"dose: 600.0 mg/kg/injection, schedule: Q04DX003 (ip), vehicle: saline",104 % of control
same,T/C,"dose: 600.0 mg/kg/injection, schedule: Q04DX003 (ip), vehicle: suspension in saline",82 % of control
same,T/C,"dose: 1200.0 mg/kg/injection, schedule: Q04DX003 (ip), vehicle: saline",47 % of control
same,T/C,"dose: 1200.0 mg/kg/injection, schedule: Q04DX003 (ip), vehicle: suspension in saline",62 % of control
C/C=C\C1OC1(C)c1cc(=O)c2c(C)cc3c(c2o1)C(=O)c1c(O)c(C2CC(C)(N(C)C)C(OC(C)=O)C(C)O2)cc(C2CC(N(C)C)C(O)C(C)O2)c1C3=O (configuration not stated),T/C,"dose: 0.75 mg/kg/injection, schedule: Q04DX003 (ip), vehicle: saline + alcohol",89 % of control
same,T/C,"dose: 1.5 mg/kg/injection, schedule: Q04DX003 (ip), vehicle: saline + alcohol",34 % of control and 50 % of control
same,T/C,"dose: 3.0 mg/kg/injection, schedule: Q04DX003 (ip), vehicle: saline + alcohol",29 % of control and 47 % of control
same,T/C,"dose: 6.0 mg/kg/injection, schedule: Q04DX003 (ip), vehicle: saline + alcohol",11 % of control and 32 % of control
same,T/C,"dose: 12.0 mg/kg/injection, schedule: Q04DX003 (ip), vehicle: saline + alcohol",39 % of control
O=C1N[C@@H]2C(=C[C@H](O)[C@@H](O)[C@H]2O)c2cc3c(c(O)c21)OCO3,T/C,"dose: 1.25 mg/kg/injection, schedule: Q04DX003 (sc), vehicle: saline with Tween-80",71 % of control
C[C@]12CC[C@H]3[C@@H](CCC4=C[C@@H](OC5OCC(OC6OC(CO)C(O)C(O)C6O)C(O)C5O)CC[C@@]43C=O)[C@@]1(O)CCC2C1=CC(=O)OC1 (some centres not stated),T/C,"dose: 15.0 mg/kg/injection, schedule: Q04DX003 (sc), vehicle: Klucel (hydroxypropylcellulose) (HPC)",118 % of control
CC(=O)C(=O)O.CC(=O)C(=O)O.[NH-]C1CCCCC1[NH-].[Pt+2] (configuration not stated),T/C,"dose: 12.5 mg/kg/injection, schedule: Q04DX003 (sc), vehicle: other",72 % of control
same,T/C,"dose: 25.0 mg/kg/injection, schedule: Q04DX003 (sc), vehicle: other",17 % of control
same,T/C,"dose: 50.0 mg/kg/injection, schedule: Q04DX003 (sc), vehicle: other",-78 % of control
CCOC(=O)/C=C/C(=O)N1CCN(C(=O)/C=C/C(=O)OCC)C(C)C1 (configuration not stated),T/C,[2],103 % of control
same,T/C,[3],83 % of control
same,T/C,[4],77 % of control
CO[C@@]12[C@@H]3N[C@@H]3CN1C1=C(C(=O)C(N3CCCC3)=C(C)C1=O)[C@@H]2COC(N)=O,T/C,"dose: 1.5 mg/kg/injection, schedule: Q04DX003 (ip), vehicle: saline with Tween-80",6 % of control and 12 % of control
same,T/C,"dose: 12.0 mg/kg/injection, schedule: Q04DX003 (ip), vehicle: saline with Tween-80",-98 % of control
O=C1c2c(O)cccc2-c2nn(CCNCCO)c3ccc(NCCNCCO)c1c23,T/C,"dose: 2.75 mg/kg/injection, schedule: Q04DX003 (ip), vehicle: water",3 % of control
same,T/C,"dose: 5.5 mg/kg/injection, schedule: Q04DX003 (ip), vehicle: water",-100 % of control
same,T/C,"dose: 11.0 mg/kg/injection, schedule: Q04DX003 (ip), vehicle: water",-19 % of control
O=S(=O)(CCl)OCCCl,T/C,[1],90 % of control
same,T/C,"dose: 50.0 mg/kg/injection, schedule: Q04DX003 (sc), vehicle: saline with Tween-80",113 % of control
same,T/C,"dose: 100.0 mg/kg/injection, schedule: Q04DX003 (sc), vehicle: saline with Tween-80",95 % of control
[Na+],T/C,"dose: 150.0 mg/kg/injection, schedule: Q04DX003 (ip), vehicle: water",66 % of control
same,T/C,"dose: 600.0 mg/kg/injection, schedule: Q04DX003 (ip), vehicle: water",84 % of control
same,T/C,"dose: 1200.0 mg/kg/injection, schedule: Q04DX003 (ip), vehicle: water",97 % of control
COc1cc([C@@H]2c3cc4c(cc3[C@@H](OC3OC5CO[C@@H](c6cccs6)OC5C(O)C3O)[C@H]3COC(=O)[C@H]23)OCO4)cc(OC)c1O (some centres not stated),T/C,"dose: 8.75 mg/kg/injection, schedule: Q01DX010 (ip), vehicle: saline",82 % of control
same,T/C,"dose: 17.5 mg/kg/injection, schedule: Q01DX010 (ip), vehicle: saline",74 % of control

# — PubChem BioAssay AID298 (DTP/NCI, 2004)
